Assay results reported in article PMC7717600, “Novel [(N-alkyl-3-indolylmethylene)hydrazono]oxindoles arrest cell cycle and induce cell apoptosis by inhibiting CDK2 and Bcl-2: synthesis, biological evaluation and in silico studies” (Journal of Enzyme Inhibition and Medicinal Chemistry, 2020).
Read-outs that look alike come from different tables or passages of the source.

Assays:
[1] = system: NCI-H460; assay: NCI SRB screening; type: cell-based, human
[2] = system: COLO 205; assay: NCI SRB screening; type: cell-based, human
[3] = system: HCT-116; assay: SRB anti-proliferative assay; type: cell-based; settings: Homo sapiens; HCT-116, SRB, mean ± SE of 3
Procedure: (§1) All the newly prepared target conjugates (7, 8a–c, 9 and 10a–e) were investigated for the prospective growth inhibitory actions against three different cancer cell lines viz.; A-549, MDA-MB-231, and HCT-116, using the sulforhodamine B colorimetric (SRB) assay. Staurosporine, a clinically used antitumor drug, was co-assayed as a reference agent for the experiment.
(§2) Examination of the cytotoxic activity for the target conjugates was carried out in accordance with the SRB colorimetric assay protocol, as described previously.
(§3) In vitro anti-proliferative activity assay
(§4) Cells at a concentration of 0.50 x
(§5) Sulfo-Rhodamine-B stain (SRB) assay.
(§6) cell to the wall of the plate.
(§7) wells were prepared for each individual dose).
(§8) Unbound dye was removed by four

[4] = system: MDA-MB-231; assay: SRB anti-proliferative assay; type: cell-based; settings: Homo sapiens; MDA-MB-231, SRB, mean ± SE of 3
Procedure: as §1, §2, §3, §4, §5, §6, §7, §8

[5] = system: K-562; settings: for TGI: K-562
[6] = system: MOLT-4
[7] = system: EKVX
[8] = system: HOP-62; settings: for TGI: HOP-62
[9] = system: NCI-H23; settings: for TGI: NCI-H23
[10] = system: HCT-116; settings: for TGI: HCT-116
[11] = system: CCRF-CEM; assay: cells; settings: Homo sapiens
[12] = system: HT29; settings: for TGI: HT29
[13] = system: SW-620; settings: for TGI: SW-620
[14] = system: SK-MEL-28; settings: for TGI: SK-MEL-28
[15] = system: K-562; assay: cells; settings: Homo sapiens
[16] = system: OVCAR-4
[17] = system: NCI/ADR-RES
[18] = system: 786-0; settings: for TGI: 786-0
[19] = system: SN12C
[20] = system: RPMI-8226; assay: cells; settings: Homo sapiens
[21] = system: HOP-92; assay: cells; settings: Homo sapiens
[22] = system: NCI-H522; assay: cells; settings: Homo sapiens
[23] = system: HT29; assay: cells; settings: Homo sapiens
[24] = system: KM12; assay: cells; settings: Homo sapiens
[25] = system: SNB-19; assay: cells; settings: Homo sapiens
[26] = system: U251; assay: cells; settings: Homo sapiens
[27] = system: MALME-3M; assay: cells; settings: Homo sapiens
[28] = system: SK-MEL-2; assay: cells; settings: Homo sapiens
[29] = system: SK-MEL-28; assay: cells; settings: Homo sapiens
[30] = system: SK-MEL-5; assay: cells; settings: Homo sapiens
[31] = system: UACC-257; assay: cells; settings: Homo sapiens
[32] = system: IGROV1; assay: cells; settings: Homo sapiens
[33] = system: OVCAR-5; assay: cells; settings: Homo sapiens
[34] = system: 786-0; assay: cells; settings: Homo sapiens
[35] = system: ACHN; assay: cells; settings: Homo sapiens
[36] = system: TK-10; assay: cells; settings: Homo sapiens
[37] = system: UO-31; assay: cells; settings: Homo sapiens
[38] = system: MDA-MB-231/ATCC; assay: cells; settings: Homo sapiens
[39] = system: MDA-MB-468; assay: cells; settings: Homo sapiens

## CCCn1cc(C=NN=C2C(=O)Nc3ccc(C)cc32)c2ccccc21 [Compound 8a]
[1]; Homo sapiens, NCI-H460
  GI50: 2.17 µM
[1]; NCI-H460
  TGI: 10.6 µM
[1]; NCI-H460, 10 μM
  GI %: 68%
[1]; NCI-H460, 1.00E-5 Molar
  Growth Percent: 32.08%
[1]; NCI-H460, listed as D - 795311 / 1
  TGI: 1.06E-5 Molar
[2]; COLO 205
  TGI: 3.06 µM
[2]; COLO 205, 10 μM
  GI %: 116%
[2]; COLO 205, 1.00E-5 Molar
  Growth Percent: -16.20%
[2]; COLO 205, listed as D - 795311 / 1
  TGI: 3.06E-6 Molar
[2]; Homo sapiens, COLO 205
  GI50: 1.25 µM
[3]
  IC50: 2.6 ± 0.17 µM
[4]
  IC50: 4.7 ± 0.28 µM
[5]
  TGI: 20.5 µM
[5]; K-562, 10 μM
  GI %: 83%
[5]; K-562, 1.00E-5 Molar
  Growth Percent: 17.61%
[5]; listed as D - 795311 / 1
  TGI: 2.05E-5 Molar
[6]; MOLT-4
  GI50: 0.68 µM
  TGI: 4.54 µM
[6]; MOLT-4, 10 μM
  GI %: 110%
[6]; MOLT-4, 1.00E-5 Molar
  Growth Percent: -9.90%
[6]; MOLT-4, listed as D - 795311 / 1
  TGI: 4.54E-6 Molar
[7]
  TGI: >100 µM
[7]; 10 μM
  GI %: 50%
[7]; 1.00E-5 Molar
  Growth Percent: 50.45%
[7]; listed as D - 795311 / 1
  TGI: > 1.00E-4 Molar
[8]
  TGI: 25.0 µM
[8]; HOP-62, 10 μM
  GI %: 25%
[8]; HOP-62, 1.00E-5 Molar
  Growth Percent: 75.35%
[8]; listed as D - 795311 / 1
  TGI: 2.50E-5 Molar
[9]
  TGI: 38.2 µM
[9]; NCI-H23, 10 μM
  GI %: 52%
[9]; NCI-H23, 1.00E-5 Molar
  Growth Percent: 48.03%
[9]; listed as D - 795311 / 1
  TGI: 3.82E-5 Molar
[10]
  TGI: 4.17 µM
[10]; HCT-116, 10 μM
  GI %: 60%
[10]; HCT-116, 1.00E-5 Molar
  Growth Percent: 39.85%
[10]; listed as D - 795311 / 1
  TGI: 4.17E-6 Molar
[10]; human, 48 h
  CC50: 9.96 µM
[11]
  GI50: 1.94 µM
[11]; read-out: LC50
  CC50: > 100 µM
[12]
  TGI: >100 µM
[12]; HT29, 10 μM
  GI %: 83%
[12]; HT29, 1.00E-5 Molar
  Growth Percent: 17.08%
[12]; listed as D - 795311 / 1
  TGI: > 1.00E-4 Molar
[13]
  TGI: 35.3 µM
[13]; SW-620, 10 μM
  GI %: 64%
[13]; SW-620, 1.00E-5 Molar
  Growth Percent: 36.69%
[13]; listed as D - 795311 / 1
  TGI: 3.53E-5 Molar
[14]
  TGI: 36.9 µM
[14]; SK-MEL-28, 10 μM
  GI %: 41%
[14]; SK-MEL-28, 1.00E-5 Molar
  Growth Percent: 59.40%
[14]; listed as D - 795311 / 1
  TGI: 3.69E-5 Molar
[15]; K562
  GI50: 2.22 µM
[15]; K562, read-out: LC50
  CC50: > 100 µM
[16]; OVCAR-4
  GI50: 0.93 µM
  TGI: 25.60 µM
[16]; OVCAR-4, 10 μM
  GI %: 58%
[16]; OVCAR-4, 1.00E-5 Molar
  Growth Percent: 41.83%
[16]; OVCAR-4, listed as D - 795311 / 1
  TGI: 2.56E-5 Molar
[17]
  TGI: 89.90 µM
[17]; 10 μM
  GI %: 24%
[17]; 1.00E-5 Molar
  Growth Percent: 76.32%
[17]; listed as D - 795311 / 1
  TGI: 8.99E-5 Molar
[18]
  TGI: 71.20 µM
[18]; 786-0, 10 μM
  GI %: 36%
[18]; 786-0, 1.00E-5 Molar
  Growth Percent: 64.53%
[18]; listed as D - 795311 / 1
  TGI: 7.12E-5 Molar
[19]
  TGI: 75.90 µM
[19]; 10 μM
  GI %: 51%
[19]; 1.00E-5 Molar
  Growth Percent: 49.93%
[19]; listed as D - 795311 / 1
  TGI: 7.59E-5 Molar
[20]; RPMI-8226
  GI50: 1.33 µM
[20]; RPMI-8226, read-out: LC50
  CC50: > 100 µM
[21]; HOP-92
  GI50: 1.87 µM
[21]; HOP-92, read-out: LC50
  CC50: > 100 µM
[22]; NCI-H522
  GI50: 1.81 µM
[22]; NCI-H522, read-out: LC50
  CC50: > 100 µM
[23]; HT-29
  GI50: 3.4 µM
[23]; HT-29, read-out: LC50
  CC50: > 100 µM
[24]; KM12
  GI50: 3.22 µM
[24]; KM12, read-out: LC50
  CC50: > 100 µM
[25]; SNB-19
  GI50: 4.24 µM
[25]; SNB-19, read-out: LC50
  CC50: > 100 µM
[26]; U-251
  GI50: 3.51 µM
[26]; U-251, read-out: LC50
  CC50: > 100 µM
[27]
  GI50: 1.88 µM
[27]; read-out: LC50
  CC50: > 100 µM
[28]; SK-MEL-2
  GI50: 2.42 µM
[28]; SK-MEL-2, read-out: LC50
  CC50: > 100 µM
[29]; SK-MEL-28
  GI50: 4.7 µM
[29]; SK-MEL-28, read-out: LC50
  CC50: > 100 µM
[30]; SK-MEL-5
  GI50: 2.86 µM
[30]; SK-MEL-5, read-out: LC50, SK-MEL-5
  CC50: 47.4 µM
[31]; UACC-257
  GI50: 12.3 µM
[31]; UACC-257, read-out: LC50
  CC50: > 100 µM
[32]; IGROV-1
  GI50: 3.38 µM
[32]; IGROV-1, read-out: LC50
  CC50: > 100 µM
[33]; OVCAR-5
  GI50: 4.04 µM
[33]; OVCAR-5, read-out: LC50
  CC50: > 100 µM
[34]; 786-0
  GI50: 5.94 µM
[34]; 786-0, read-out: LC50
  CC50: > 100 µM
[35]
  GI50: 3.56 µM
[35]; read-out: LC50
  CC50: > 100 µM
[36]; TK-10
  GI50: 11.1 µM
[36]; TK-10, read-out: LC50
  CC50: > 100 µM
[37]; UO-31
  GI50: 2.28 µM
[37]; UO-31, read-out: LC50
  CC50: > 100 µM
[38]; MDA-MB-231
  GI50: 1.81 µM
[38]; MDA-MB-231, read-out: LC50
  CC50: > 100 µM
[39]; MDA-MB-468
  GI50: 1.69 µM
[39]; MDA-MB-468, read-out: LC50
  CC50: 79.4 µM
